Test results reported in patent US8642621B2, “(4-phenyl-piperidin-1-yl)-[5-(1H-pyrazol-4-yl)-thiophen-3-yl]-methanone compounds and their use” (The University Of Edinburgh, priority 2009, dated 2014).
Read-outs that look alike come from different tables or passages of the source.

What was measured:
human 11β-HSD2 = molecular target: T1, human 11β-HSD2 (Homo sapiens, UniProt P80365); experiment: Cellular in vitro 11β-HSD2 enzyme inhibition assay (CHO cells); assay type: cell-based; conditions: CHO cells stably transfected with human 11β-HSD2; Table 1
T1 construct: CHO cells stably transfected with the full-length gene coding for human 11β-HSD2 were used; expressed in transfected cells
T1 sequence (P80365 1-405): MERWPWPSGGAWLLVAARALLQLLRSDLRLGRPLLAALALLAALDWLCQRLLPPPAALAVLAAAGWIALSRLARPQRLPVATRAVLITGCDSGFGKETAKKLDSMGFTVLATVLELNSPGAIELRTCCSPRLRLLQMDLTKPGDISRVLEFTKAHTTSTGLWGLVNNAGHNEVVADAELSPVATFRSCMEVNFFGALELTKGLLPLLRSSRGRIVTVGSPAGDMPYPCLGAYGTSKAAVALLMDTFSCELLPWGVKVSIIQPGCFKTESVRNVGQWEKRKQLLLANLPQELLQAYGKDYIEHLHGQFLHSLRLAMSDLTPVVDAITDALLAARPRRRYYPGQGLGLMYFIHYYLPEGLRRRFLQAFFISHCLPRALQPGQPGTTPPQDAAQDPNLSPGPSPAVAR
Protocol: Cellular In Vitro 11β-HSD2 Enzyme Inhibition Assay
Assays were carried out in 96-well microplates containing 1×10^5 cells/well. Controls and compounds were plated as above, so that the final DMSO concentration in each well was 1%. To initiate the assay, 90 μL of a solution of HAMS F-12 medium containing 1% glutamine, 1% penicillin and streptomycin, and 22 nM tritiated cortisol was added to each well of the assay plate. The plate was then incubated in 5% CO2, 95% O2 at 37° C. for 16 hours.
The assay solutions were transferred to glass tubes and 20 μL ethyl acetate added to each tube. Each tube was vortexed thoroughly and the upper layer containing the tritiated steroid transferred to a fresh glass tube. The solvent was evaporated by placing the tubes in a heating block at 65° C. under a stream of Nitrogen gas. 20 μL ethanol was added to each of the dried samples and vortexed briefly. Each sample was applied to a silica TLC plate and the plate dried. The plate was placed vertically in a glass tank containing 92% chloroform:8% ethanol and the solvent allowed to rise up the plate. The plate was dried, placed in an imaging cassette, and overlayed with a tritium imaging plate for 1-2 days. The amount of enzyme inhibition in each sample was determined by measuring the intensity of the substrate and product spots using a phosphoimager.
IC50 values for inhibitors were determined as described for 11β-HSD1.

human 11β-HSD1 enzyme = molecular target: T2, human 11β-HSD1 enzyme (Homo sapiens, UniProt P28845); experiment: Cellular in vitro 11β-HSD1 enzyme inhibition assay (SPA, HEK293/11β-HSD1 cells); assay type: cell-based; conditions: read-out: IC50 for 11β-HSD1 (HEK293)
T2 construct: stably transfected with a construct containing the full-length gene coding for the human 11β-HSD1 enzyme; expressed in transfected cells; HEK293/11β-HSD1 cells)
Protocol: Cellular In Vitro 11β-HSD1 Enzyme Inhibition Assay
Compounds were assessed by a Scintillation Proximity Assay (SPA) performed according to the following protocol:
HEK293 cells were stably transfected with a construct containing the full-length gene coding for the human 11β-HSD1 enzyme to create HEK293/11β-HSD1 cells. Cells were routinely cultured in DMEM containing 10% calf foetal serum, 1% glutamine, and 1% penicillin and streptomycin. Prior to assay, cells were plated at 2×10^4 cells/well in 96-well poly-D-Lys coated flat-bottomed microplates and incubated in 5% CO2, 95% O2 at 37° C. for 24 hours. The media in each well was removed immediately before assay.
Compounds to be tested were dissolved in DMSO at 10 mM and serially diluted into water containing 10% DMSO. Diluted compounds at a volume of 10 μL were added to wells of a 96-well V-bottomed microplate. A solution of DMEM, 1% glutamine, 1% penicillin and streptomycin, and 22 nM tritiated cortisone was prepared and 90 μL added to each well of the assay plate. This solution (100 μL/well) was transferred to the plate containing the cells. The plate was then incubated in 5% CO2, 95% O2 at 37° C. for 2 hours.
Following this incubation, 50 μL of the assay solution was transferred to each well of a 96-well scintillation microplate. A mixture consisting of anti-mouse YSi SPA beads, pre-mixed with anti-cortisol antibody in assay buffer (50 mM Tris.HCl, pH 7.0; 300 mM NaCl; 1 mM EDTA, 5% glycerol) was prepared and 50 μL added to each well of the scintillation microplate. An adhesive strip was applied to the microplate and the plate gently shaken for at least 2 hours at room temperature, and then spun briefly on a low speed centrifuge. The plate was read on a scintillation counter suitable for 96-well microplates. For the calculation of percentage inhibition, a series of wells were added to the plate that represented the assay maximum and the assay minimum: one set that contained substrate without cells (minimum) and another set that contained substrate and cells without any compound (maximum).
The calculation of median inhibitory concentration (IC50) values for the compounds was performed using GraphPad Prism® software. Dose-response curves for each compound were plotted as fractional inhibition and data fitted to the four parameter logistic equation.

Pharmacokinetics in rat = assay type: in vivo, male Sprague Dawley rats; conditions: male, Sprague Dawley, whole blood, intravenous 1 mg/kg and oral 10 mg/kg, read-out: % F (% Bioavailability)
Protocol: The pharmacokinetics of certain compounds were determined following intravenous (1 mg/kg) and oral (10 mg/kg) administration to male Sprague Dawley rats. Dosing solution was prepared by mixing each compound with 2% DMSO, 38% PEG-400 and 60% (0.9%) NaCl. Solutions were passed through 0.2 μm filters prior to administration.
Following dosing and at appropriate time points, blood samples were taken from a lateral tail vein and transferred into a tube pre-treated with EDTA. Blood samples were analysed for parent compound by LCMS and the quantity of parent compound remaining determined. Non-compartmental analysis was applied to the data using WinNonlin™ software to determine the pharmacokinetic parameters for each compound.

[1] = In vitro human liver microsomal stability assay; assay type: in vitro ADME; conditions: human liver microsomes
Protocol: In Vitro Human Liver Microsomal Stability Assay
To predict in vivo metabolism of compounds, the stability of compounds incubated with human liver microsomes in vitro was determined. Human liver microsome preparations were stored at −80° C. and thawed on ice prior to use. The thawed microsomes were diluted to a concentration of 2 mg/mL in 50 mM sodium phosphate, pH 7.4. Reference and test compounds were prepared as 10 mM stocks in 100% DMSO and diluted to 1 mM in acetonitrile before use. Each compound was tested in triplicate as follows:
4 μL of test or reference compound was added to a well of a 24-well microplate and 0.5 mL of 4 mM NADPH added. The plate was then transferred to a shaker for 10 minutes at room temperature. 30 μL of the compound/NADPH solution was transferred to the well of a 96-well microplate and incubated at 37° C. for 5 minutes. 30 μL of human liver microsomes (pre-incubated at 37° C. for 5 minutes) was added to the well containing the compound/NADPH solution and the plate incubated for the selected period of time (typically 0 or 30 minutes). The reaction was stopped by adding 60 μL of ice cold […] trichloroacetic acid. The plate was centrifuged at 1000 rpm for 5 minutes at room temperature and the supernatant transferred to the well of a new 96-well v-bottomed microplate for mass spectrometric analysis.
Samples were analyzed by TSQ Quantum Discovery Tandem Mass Spectrometer and Surveyor Liquid Chromatogram (Thermo, Hemel-Hempstead, UK). 10 μL of each sample was injected in a mobile phase consisting of 60%:40% methanol:5 mM ammonium acetate at a flow rate of 0.5 mL/minute. The column used was a BDS hypersil, C18, 50×2.1 mm with a 5 μm particle size.
Each compound was tuned with a spray voltage of 3000 V and a capillary temperature of 300° C. and values for tube lens, CID and product ions were determined.
The peak area for each compound was measured in triplicate for the 0 and 30 minute samples and the average of each was reported. The percentage remaining after 30 minutes was calculated as the average peak area of the sample after 30 minutes divided by the average peak area at 0 minutes. The RSD was 10% or lower for each compound.

[2] = HEK293 cells stably transfected with human 11β-HSD1, Table 1

T2 sequence (P28845 whole entry): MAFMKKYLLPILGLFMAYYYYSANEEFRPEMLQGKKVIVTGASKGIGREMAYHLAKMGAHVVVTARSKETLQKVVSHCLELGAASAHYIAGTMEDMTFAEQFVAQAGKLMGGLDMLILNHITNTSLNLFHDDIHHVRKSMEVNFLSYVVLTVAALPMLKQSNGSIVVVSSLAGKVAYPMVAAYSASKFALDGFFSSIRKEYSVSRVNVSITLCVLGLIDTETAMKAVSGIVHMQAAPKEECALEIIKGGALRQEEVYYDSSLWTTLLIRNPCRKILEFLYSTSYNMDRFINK

SMILES | IC50 (human 11β-HSD2) | IC50 (human 11β-HSD1 enzyme; [2]) | IC50 (human 11β-HSD1 enzyme) | bioavailability (Pharmacokinetics in rat) | % Parent Remaining at 30 min [1]
O=C(c1csc(-c2cn[nH]c2)c1)N1C2CCC1CC(O)(c1ccccc1)C2 (stereo not shown) [AA-06] | > 10 µM | 21 nM | ≤ 500 nM | 11 to 30% | +++ (61-100% +++)
O=C(c1csc(-c2cn[nH]c2)c1)N1CCC(O)(c2ccccc2)CC1 [AA-01, (4-Hydroxy-4-phenyl-piperidin-1-yl)-[5-(1H-pyrazol-4-yl)-thiophen-3-yl]-methanone] | > 10 µM | 208 nM | ≤ 500 nM | 31 to 100% | +++ (61-100% +++)
O=C(c1csc(-c2cn[nH]c2)c1)N1CCC(O)(c2ccc(Cl)cc2)CC1 [AA-02] | – | – | ≤ 500 nM | 31 to 100% | +++ (61-100% +++)
O=C(c1csc(-c2cn[nH]c2)c1)N1CCC(F)(c2ccccc2Cl)CC1 [AA-36] | > 10 µM | 42 nM | ≤ 500 nM | – | + (0-30% +)
O=C(c1csc(-c2cn[nH]c2)c1)N1CCC(F)(c2cc(F)ccc2Cl)CC1 [AA-37] | > 10 µM | 35 nM | ≤ 500 nM | – | ++ (31-60% ++)
O=C(c1csc(-c2cn[nH]c2)c1)N1CCC(O)(c2ccccc2Cl)CC1 [AA-08] | > 10 µM | 10 nM | ≤ 500 nM | 31 to 100% | ++ (31-60% ++)
COC1(c2ccccc2Cl)CCN(C(=O)c2csc(-c3cn[nH]c3)c2)CC1 [AA-33] | > 10 µM | 19 nM | ≤ 500 nM | – | + (0-30% +)
O=C(c1csc(-c2cn[nH]c2)c1)N1C2CCC1CC(c1ccccc1)C2 (stereo not shown) [BB-08] | > 10 µM | 114 nM | ≤ 500 nM | – | ++ (31-60% ++)
O=C(c1csc(-c2cn[nH]c2)c1)N1CCC(O)(c2ccccc2F)CC1 [AA-04] | > 10 µM | 44 nM | ≤ 500 nM | 31 to 100% | +++ (61-100% +++)
O=C(c1csc(-c2cn[nH]c2)c1)N1CCC(F)(c2ccccc2F)CC1 [AA-18] | > 10 µM | 104 nM | ≤ 500 nM | – | ++ (31-60% ++)
COC1(c2ccccc2)CCN(C(=O)c2csc(-c3cn[nH]c3)c2)CC1 [AA-15] | > 10 µM | 110 nM | ≤ 500 nM | – | ++ (31-60% ++)
O=C(c1csc(-c2cn[nH]c2)c1)N1CCC(F)(c2ccccc2)CC1 [AA-17] | – | – | 500 to 1000 nM | 31 to 100% | +++ (61-100% +++)
COc1ccccc1C1CCN(C(=O)c2csc(-c3cn[nH]c3)c2)CC1 [BB-03] | > 10 µM | 107 nM | ≤ 500 nM | – | + (0-30% +)
Cc1cccc(F)c1C1(O)CCN(C(=O)c2csc(-c3cn[nH]c3)c2)CC1 [AA-22] | > 10 µM | 38 nM | ≤ 500 nM | – | +++ (61-100% +++)
